Reference: US20240139236A1, “COPPER HISTIDINATE COMPOSITIONS AND USES THEREOF” (Cyprium Therapeutics, Inc., priority 2021, published 2024)
Marks after values point to notes of the source that are not given here.

Experiment: Single subcutaneous dose [14C]-copper histidinate pharmacokinetic study in healthy adult male subjects
Type: in vivo, human
Conditions: for Whole Blood:Serum Total Radioactivity Partitioning Ratio (Arithmetic Mean ± SD): n = 6; for Whole Blood:Serum Total Radioactivity Partitioning Ratio: 504 hour postdose, n = 1 (Subject 6)
Text: The primary objective of this study was to quantitate total radioactivity (TRA) in whole blood, serum, and the eluted fractions of serum spiked with unlabeled copper histidinate (CuHis) from a size exclusion-high performance liquid chromatography (SEC-HPLC) column after a single subcutaneous (SC) administration of [^14C] CuHis in healthy adult male subjects. Further, the study was designed to determine the percentage of ^14C radioactivity associated with cellular components in whole blood over time (e.g., whole blood:serum partitioning concentration ratio).
To evaluate the safety and tolerability after a single SC administration of [^14C] CuHis in healthy adult male subjects. This was an open-label, single-dose, 1-period, PK study conducted at 1 study center in the USA. Six (6) healthy, adult male subjects were enrolled. Screening of subjects occurred within 28 days prior to dosing.
On Day 1, a single SC 3.0 mg (˜500 nCi) dose of [^14C]-CuHis was administered. Pharmacokinetic (PK) samples for determining TRA in whole blood and serum, and [^14C] CuHis in eluted fractions of serum spiked with unlabeled CuHis from an SEC-HPLC column were collected pre-dose and up to 168 hours post-dose (Subjects 1 to 5) or 504 hours post-dose (Subject 6).
A single dose of 3.0 mg (˜500 nCi) [^14C]-CuHis (equivalent to approximately 500 μg of elemental copper) for SC bolus injection was administered into the upper arm of each subject at Hour 0 on Day 1. Hour 0 corresponded to the start of the bolus SC administration on Day 1. Subjects were instructed not to rub the injection site(s).
Blood samples for determining TRA in whole blood and serum, and [^14C]-CuHis in eluted fractions of serum spiked with unlabeled CuHis from a SEC-HPLC column were collected predose and up to 168 hours postdose (Subjects 1 to 5) or up to 504 hours postdose (Subject 6).
TRA CuHis concentration equivalents in whole blood and serum were determined using accelerator mass spectrometry (AMS) at Pharmaron ABS, Inc. (Germantown, Maryland, USA). The lower limits of quantitation (LLOQ) for TRA CuHis concentration equivalents in whole blood and serum ranged from 0.711 to 0.770 ng eq CuHis/mL and 0.239 to 0.284 ng eq CuHis/mL in the different subjects, respectively.
[^14C]-CuHis concentrations in serum fractions from the SEC-HPLC column were determined using AMS at Pharmaron ABS, Inc. (Germantown, Maryland, USA). The LLOQ for [^14C]-CuHis concentrations in serum was 0.270 ng/mL.
Whole blood: serum TRA partitioning ratios were calculated at each postdose time point for each subject as the ratio between whole blood TRA CuHis concentration equivalents and serum TRA CuHis concentration equivalents. The following parameters were calculated for whole blood and serum TRA, and serum [^14C]-CuHis, when possible: AUC0-24, AUC0-last, AUC0-∞, AUC% extrap, Cmax, tmax, tlag, Kel, and t1/2. The AUC0-24 Ratio was calculated for serum [^14C]-CuHis versus serum TRA. CL/F and Vz/F were calculated for serum [^14C]-CuHis.
Whole blood and serum TRA CuHis concentration equivalents, serum [^14C]-CuHis concentrations, and whole blood:serum TRA partitioning ratios were listed and summarized by time point for all subjects in the PK population. Summary statistics, including sample size (n), arithmetic mean (Mean), standard deviation (SD), coefficient of variation (CV %), standard error of the mean (SEM), minimum, median, and maximum were calculated for the above data at each nominal time point.
Whole blood and serum TRA PK parameters, and serum [^14C]-CuHis PK parameters were listed for each subject and summarized for all subjects in the PK population. Summary statistics (n, Mean, SD, CV %, SEM, minimum, median, maximum, geometric mean [Geom Mean], and geometric CV % [Geom CV %]) were calculated for all PK parameters.

[1] = single SC 3.0 mg, arithmetic mean ± SD
[2] = single SC 3.0 mg, geometric mean (geometric CV%)
[3] = single SC 3.0 mg, median (minimum, maximum)
[4] = single SC 3.0 mg, median (minimum, maximum), listed as [^14C]-CuHis
[5] = single SC 3.0 mg, up to 168 h, Subject 6 excluded, geometric mean (geometric CV%)

## N[C@@H](Cc1c[nH]cn1)C(=O)O.N[C@@H](Cc1c[nH]cn1)C(=O)O.[Cu] [[^14C]-Copper Histidinate]
0.25 hour postdose
  Whole Blood:Serum Total Radioactivity Partitioning Ratio (Arithmetic Mean ± SD): 0.6165 ± 0.1072
0.5 hour postdose
  Whole Blood:Serum Total Radioactivity Partitioning Ratio (Arithmetic Mean ± SD): 0.6410 ± 0.05811
0.75 hour postdose
  Whole Blood:Serum Total Radioactivity Partitioning Ratio (Arithmetic Mean ± SD): 0.6426 ± 0.05966
0.75 hours postdose
  arithmetic mean serum CuHis concentration, peak: 63.47 ng/mL
1 hour postdose
  Whole Blood:Serum Total Radioactivity Partitioning Ratio (Arithmetic Mean ± SD): 0.6888 ± 0.06107
1.5 hour postdose
  Whole Blood:Serum Total Radioactivity Partitioning Ratio (Arithmetic Mean ± SD): 0.6728 ± 0.0542
2 hour postdose
  Whole Blood:Serum Total Radioactivity Partitioning Ratio (Arithmetic Mean ± SD): 0.6761 ± 0.03446
4 hour postdose
  Whole Blood:Serum Total Radioactivity Partitioning Ratio (Arithmetic Mean ± SD): 0.7010 ± 0.09398
8 hour postdose
  Whole Blood:Serum Total Radioactivity Partitioning Ratio (Arithmetic Mean ± SD): 0.5856 ± 0.1175
8 hours postdose
  arithmetic mean serum TRA CuHis concentration equivalent, peak: 97.43 ng eq CuHis/mL
16 hour postdose
  Whole Blood:Serum Total Radioactivity Partitioning Ratio (Arithmetic Mean ± SD): 0.7144 ± 0.1134
24 hour postdose
  Whole Blood:Serum Total Radioactivity Partitioning Ratio (Arithmetic Mean ± SD): 0.6708 ± 0.08484
36 hour postdose
  Whole Blood:Serum Total Radioactivity Partitioning Ratio (Arithmetic Mean ± SD): 0.7498 ± 0.04878
36 hour postdose, listed as [^14C]-CuHis
  Whole Blood:Serum Total Radioactivity Partitioning Ratio (Arithmetic Mean ± SD): 0.7498
48 hour postdose
  Whole Blood:Serum Total Radioactivity Partitioning Ratio (Arithmetic Mean ± SD): 0.8329 ± 0.09811
72 hour postdose
  Whole Blood:Serum Total Radioactivity Partitioning Ratio (Arithmetic Mean ± SD): 1.209 ± 0.1925
96 hour postdose
  Whole Blood:Serum Total Radioactivity Partitioning Ratio (Arithmetic Mean ± SD): 1.612 ± 0.3461
120 hour postdose
  Whole Blood:Serum Total Radioactivity Partitioning Ratio (Arithmetic Mean ± SD): 1.853 ± 0.3512
144 hour postdose
  Whole Blood:Serum Total Radioactivity Partitioning Ratio (Arithmetic Mean ± SD): 2.163 ± 0.3333
168 hour postdose
  Whole Blood:Serum Total Radioactivity Partitioning Ratio (Arithmetic Mean ± SD): 2.392 ± 0.222
168 hour postdose, listed as [^14C]-CuHis
  Whole Blood:Serum Total Radioactivity Partitioning Ratio (Arithmetic Mean ± SD): 2.392
168 hours postdose
  arithmetic mean whole blood TRA CuHis concentration equivalents, highest level: 100.9 ng eq CuHis/mL
  Whole Blood:Serum Total Radioactivity Partitioning Ratio: 2.160*
Listed as [^14C]-CuHis
  Whole Blood:Serum Total Radioactivity Partitioning Ratio: 2.16
504 hours postdose, Subject 6
  serum TRA CuHis concentration equivalent: 30.7 ng eq CuHis/mL
  whole blood TRA CuHis concentration equivalent: 66.3 ng eq CuHis/mL
By 168 hours postdose
  exposure to TRA (AUC0-last) higher in whole blood than in serum: approximately 29%
First 24 hours postdose
  exposure to TRA (AUC0-24) lower in whole blood than in serum: approximately 34%
  exposure to TRA in the serum associated with [14C]-CuHis: Approximately 9%
Initial rapid decrease after peak, estimated
  distribution phase half-life, serum [14C]-CuHis: 2 to 3 h
Single SC 3.0 mg
  peak exposure to TRA (Cmax), whole blood compared with serum: similar
Single SC 3.0 mg, Subject 6 excluded, geometric mean (geometric CV%)
  AUC0-∞, serum total radioactivity: 23390 (25.7) [n = 5]^c ng eq CuHis · hr/mL
[1]
  AUC% extrap, serum [14C]-copper histidinate: 12.37 ± 8.3964 [n = 5]^e %
  AUC% extrap, serum total radioactivity: 58.34 ± 12.677 [n = 5]^c %
  CL/F, serum [14C]-copper histidinate: 10.34 ± 1.6214 [n = 5]^e L/hr
  Kel, serum [14C]-copper histidinate: 0.0166 ± 0.01512 [n =5]^e 1/hr
  Kel, serum total radioactivity: 0.003278 ± 0.001588 [n = 5]^c 1/hr
  t1/2, serum [14C]-copper histidinate (terminal elimination phase): 74.842 ± 49.1558 [n = 5]^e hr
Single SC 3.0 mg, arithmetic mean ± SD, listed as [^14C]-CuHis
  t1/2, serum [14C]-copper histidinate (terminal elimination phase): ~75 h
[2]
  AUC0-24, serum [14C]-copper histidinate: 185.6 (20.6) ng · hr/mL
  AUC0-24, serum total radioactivity: 1993 (21.4) [n = 6] ng eq CuHis · hr/mL
  AUC0-24, whole blood total radioactivity: 1315 (30.4) [n = 6] ng eq CuHis · hr/mL
  AUC0-24 Ratio, serum [14C]-CuHis versus serum total radioactivity: 0.09317 (19.5) [n = 6]
  AUC0-last, serum [14C]-copper histidinate: 249.3 (10.6) ng · hr/mL
  AUC0-∞, serum [14C]-copper histidinate: 296.0 (15.3) ng · hr/mL
  Cmax, serum [14C]-copper histidinate: 67.14 (35.9) ng/mL
  Cmax, serum total radioactivity: 95.78 (24.3) [n = 6] ng eq CuHis/mL
  Cmax, whole blood total radioactivity: 100.1 (14.8) [n = 6] ng eq CuHis/mL
Single SC 3.0 mg, geometric mean (geometric CV%), listed as [^14C]-CuHis
  AUC0-24 Ratio, serum [14C]-CuHis versus serum total radioactivity: 0.09317
[3]
  tlag, serum [14C]-copper histidinate: 0.00 (0.00, 0.00) [n = 6] hr
  tlag, serum total radioactivity: 0.00 (0.00, 0.00) [n = 6] hr
  tlag, whole blood total radioactivity: 0.00 (0.00, 0.00) [n = 6] hr
  tmax, serum [14C]-copper histidinate: 0.747 (0.50, 0.76) hr
  tmax, serum total radioactivity: 8.007 (7.99, 16.02) [n = 6] hr
  tmax, whole blood total radioactivity: 168.006 (144.01, 168.03) [n = 6] hr
[4]
  tmax, serum [14C]-copper histidinate: 0.75 h
  tmax, serum total radioactivity: ~8 h
  tmax, whole blood total radioactivity: ~168 h
[5]
  AUC0-last, serum total radioactivity: 9390 (13.4) [n = 5]^c ng eq CuHis · hr/mL
  AUC0-last, whole blood total radioactivity: 12130 (15.3) [n = 5]^c ng eq CuHis · hr/mL
